# From patent publication US8101760B2, “Glucocorticoid receptor modulator and methods of use” (Eli Lilly and Company, priority 2007, dated 2012)
# Like-named read-outs stand apart in the source and are kept apart here.
# What was measured:
# [1] = In vivo studies of genotoxic potential
# [2] = biological target: T1, human MR (mineralocorticoid receptor) (Homo sapiens, UniProt P08235); assay: Nuclear hormone receptor binding assay, MR
# T1 construct: expressed in transfected cells; host or cells: HEK293 (lysate, '293-MR lysate')
# T1 sequence (P08235 1-984): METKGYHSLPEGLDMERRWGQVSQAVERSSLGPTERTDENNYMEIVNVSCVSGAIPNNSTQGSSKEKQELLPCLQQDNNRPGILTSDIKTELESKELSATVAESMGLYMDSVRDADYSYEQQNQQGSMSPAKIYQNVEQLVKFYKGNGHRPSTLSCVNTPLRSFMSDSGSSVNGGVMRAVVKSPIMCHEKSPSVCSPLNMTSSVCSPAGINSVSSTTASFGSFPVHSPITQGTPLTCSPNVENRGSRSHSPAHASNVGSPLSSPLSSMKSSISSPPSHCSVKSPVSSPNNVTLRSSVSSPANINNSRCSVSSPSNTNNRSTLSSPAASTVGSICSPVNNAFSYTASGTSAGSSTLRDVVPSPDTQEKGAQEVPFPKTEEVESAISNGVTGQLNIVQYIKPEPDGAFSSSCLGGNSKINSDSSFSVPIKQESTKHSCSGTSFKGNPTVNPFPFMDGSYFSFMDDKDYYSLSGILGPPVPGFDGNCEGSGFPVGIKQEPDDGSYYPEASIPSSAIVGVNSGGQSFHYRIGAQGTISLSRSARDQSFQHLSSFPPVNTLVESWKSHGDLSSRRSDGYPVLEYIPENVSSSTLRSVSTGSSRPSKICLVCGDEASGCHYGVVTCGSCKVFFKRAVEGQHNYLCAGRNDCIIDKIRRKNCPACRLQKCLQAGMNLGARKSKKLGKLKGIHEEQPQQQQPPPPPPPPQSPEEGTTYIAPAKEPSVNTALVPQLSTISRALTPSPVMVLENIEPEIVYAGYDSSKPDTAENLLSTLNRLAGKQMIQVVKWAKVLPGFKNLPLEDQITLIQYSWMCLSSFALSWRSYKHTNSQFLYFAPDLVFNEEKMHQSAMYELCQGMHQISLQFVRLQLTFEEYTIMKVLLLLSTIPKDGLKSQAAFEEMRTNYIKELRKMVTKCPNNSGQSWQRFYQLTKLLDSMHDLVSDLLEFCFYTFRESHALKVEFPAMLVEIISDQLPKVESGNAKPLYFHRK
# Description: Cell lysates from human embryonic kidney HEK293 cells overexpressing human GR (glucocorticoid receptor), AR (androgen receptor), MR (mineralocorticoid receptor), or PR (progesterone receptor) are used for receptor-ligand competition binding assays to determine Ki values.
# Briefly, steroid receptor competition binding assays are run in a buffer containing 20 mM Hepes buffer (pH=7.6), 0.2 mM EDTA, 75 mM NaCl, 1.5 mM MgCl2, 20% glycerol, 20 mM sodium molybdate, 0.2 mM DTT (dithiothreitol), 20 μg/mL aprotinin and 20 μg/mL leupeptin. Typically, steroid receptor binding assays include radio-labeled ligands, such as 0.3 nM [^3H]-dexamethasone for GR binding, 0.36 nM [^3H]-methyltrienolone for AR binding, 0.25 nM [^3H]-aldosterone for MR binding, and 0.29 nM [^3H]-methyltrienolone for PR binding, and either 20 μg 293-GR lysate, 22 μg 293-AR lysate, 20 μg 293-MR lysate or 40 μg 293-PR lysate per well. Assays are typically run in 96-well format. Competing test compounds are added at various concentrations ranging from about 0.01 nM to 10 μM. Non-specific binding is determined in the presence of 500 nM dexamethasone for GR binding, 500 nM aldosterone for MR binding, or 500 nM methyltrienolone for AR and PR binding. […] After an incubation of 2 hours, plates are read in a Wallac Microbeta counter. […]
# [3] = test system: carrageenan-induced paw edema; assay: Carrageenan-induced paw edema (CPE) model; format: in vivo, rat; details: rat; for ED50: oral gavage 2 h before carrageenan, 3 h after injection, mean of 5
# Excerpt: Carrageenans are a group of polysaccharides which can induce an acute inflammatory response in animals. Cardinal signs of inflammation including edema, hyperalgesia and erythema are developed in the injection site immediately following injection. The CPE model (Winter et al., Proc. Soc. Exp. Biol. Med. 111, 544-547, 1962) is a recognized model of inflammation and can be used to evaluate the antinflammatory effects of glucocorticoid receptor ligands.
# To evaluate the anti-inflammatory effects of Compound (I), the Compound (I) is formulated in a vehicle comprising 0.5% carboxymethyl cellulose and 0.25% Tween 80 then administered orally via gavage to male Sprague-Dawley rats (180-200 g) (Harlan Industries, Indianapolis, Ind.). For comparison, prednisolone is administered orally in the same vehicle. Two hours later, 1% carrageenan in 50 μL of 0.9% pyrogen free saline is injected into the subplantar regions of the right hind paw. Rats are euthanized by CO2 at 3 hours after the carrageenan injection. Paws are removed then weighed using a microbalance. Paws are then immediately immersed into liquid nitrogen until frozen. Frozen paws are dissected by making several cuts on the paw surface then centrifuged to extract the exudates. Exudate levels of IL-1β, a cytokine generated during the inflammatory response, is then measured by ELISA (R&D Systems, Inc., Catalog No. RLB00) using standard techniques. Total paw protein is also measured using a protein assay kit (Pierce Biotechnology, Inc., Rockford, Ill., U.S.A., Catalog No. 1856210) and the absolute level of IL-1β is normalized to yield a concentration value of ng IL-1β/mg total protein.
compound,measurement,setting,value
"CC/C(=C1\c2ccc(Cl)cc2OCc2ncccc21)c1cccc(NS(C)(=O)=O)c1 [Compound (I), (E)-N-{3-[1-(8-Chloro-11H-10-oxa-1-aza-dibenzo[a,d]cyclohepten-5-ylidene)-propyl]-phenyl}-methanesulfonamide]",genotoxic potential,[1],non-genotoxic
same,Ki,"[2]; HEK293 cell lysate expressing human MR, [3H]-aldosterone, mean of 5 determinations",117 nM
same,greater affinity for GR relative to MR,[2]; binding selectivity GR vs MR,≥ 30 fold
same,inhibition of carrageenan induced paw edema,"[3]; oral administration, in words",dose dependently inhibits
same,production of interleukin-1-beta (IL-1β),"[3]; oral administration, in words",inhibits production
same,ED50,"[3]; read-out: ED50, inhibition of carrageenan induced paw weight gain",~1.2 mg/kg
same,ED50,"[3]; read-out: ED50, reduction of paw exudate levels of IL-1β",~0.31 mg/kg
